Molecular target: T1, BLS (β-lactam synthetase), polyhistidine tagged (Streptomyces clavuligerus, UniProt P0DJQ7)
T1 construct: made in house; host or cells: E. coli BL21(DE3), co-expressed with chaperonin GroELS
T1 sequence (P0DJQ7 1-513): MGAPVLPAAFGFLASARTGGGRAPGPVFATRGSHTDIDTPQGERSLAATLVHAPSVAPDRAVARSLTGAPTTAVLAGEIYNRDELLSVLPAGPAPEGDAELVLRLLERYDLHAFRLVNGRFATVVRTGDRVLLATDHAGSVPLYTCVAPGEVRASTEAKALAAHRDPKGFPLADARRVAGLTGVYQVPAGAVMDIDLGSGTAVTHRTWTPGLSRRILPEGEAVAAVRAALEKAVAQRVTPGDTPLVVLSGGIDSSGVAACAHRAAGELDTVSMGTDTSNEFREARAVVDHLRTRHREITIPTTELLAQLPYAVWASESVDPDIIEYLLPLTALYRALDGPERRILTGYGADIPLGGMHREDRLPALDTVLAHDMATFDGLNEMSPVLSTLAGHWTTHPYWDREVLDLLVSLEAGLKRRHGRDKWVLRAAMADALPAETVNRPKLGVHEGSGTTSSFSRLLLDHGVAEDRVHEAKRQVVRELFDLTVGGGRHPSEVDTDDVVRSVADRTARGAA
Assay: fluorescence detection pre-column derivatised HPLC substrate assay with polyhistidine tagged BLS
Format: biochemical
Description: The bls gene has previously been expressed at relatively low levels using a pET24a(+) construct and purified by an involved two column protocol giving low overall yields (McNaughton, H. J.; Thirkettle, J. E.; Zhang, Z. H.; Schofield, C. J.; Jensen, S. E.; Barton, B.; Greaves, P. J. Chem. Soc., Chem. Commun. 1998, 2325-2326; Bachmann, B. O.; Townsend, C. A. Biochemistry 2000, 39, 11187-11193). To facilitate purification a polyhistidine tagged form of BLS (β-lactam synthetase) was produced by cloning bis into the pET28a(+) vector (from Novagen). […]
The bls gene in the vector pET28a(+) and a plasmid bearing the chaperonin GroELS^13 were simultaneously transformed into E. coli BL21(DE3) for co-expression. […] When the absorbance at 600 nm reached ˜1.0, IPTG was added to a final concentration of 1.0 mM and the cells harvested 16 hours later by centrifugation. […]
The 2-methylated substrate analogue (6) was initially assayed as a substrate for BLS using a fluorescence detection pre-column derivatised HPLC assay based on the work of Kai et al (Kai, M.; Miyazaki, T.; Yamaguchi, M.; Ohkura, Y. J. Chromatogr. 1983, 425-436). […]
Reactions were incubated at 37° C. for 15 minutes and then derivatised. […] Fluorescence was measured at 425 nm against 325 nm excitation. […]

2-Methyl CEA
relative substrate efficiency of the two 2-methyl epimers (larger scale incubation, product isolated by HPLC, 1H NMR (500 MHz) analysis): both epimers are approximately equally efficient substrates | conversion of 2-methyl CEA (6) to 2-methyl DGPC (9) (standard assay conditions: 2 mM substrate, 5 mM ATP, 10 mM MgCl2, pH 9, ca. 74 μg enzyme, 37° C., 15 minutes): ca. 50%

From patent US20050070519A1, “Cyclisation process for the preparation of c-2 beta-lactam compounds” (priority 2001, published 2005)
